Source: patent publication US10662204B2 (PFIZER INC., priority 2018, dated 2020)

Tests used:
[1] = molecular target: T1, GDP-loaded KRAS (1-169) G12C, C51S, C80L, C118S (Homo sapiens, UniProt P01116, C118S/C51S/C80L/G12C); experiment: Mass Spectrometry Reactivity Assay (MSRA): covalent adduct of compound and KRAS G12C, Percent Modification; format: binding; conditions: for MSRA (% modification) 10 μM 0.50 hr: 10 μM compound; for MSRA (% modification) 5.0 μM 0.25 hr / MSRA (% modification) 5.0 μM 0.017 hr: 5.0 μM compound
T1 construct: GDP-loaded KRAS (1-169) G12C, C51S, C80L, C118S
Experimental: Mass Spectrometry Reactivity Assay (MSRA)
Compounds presented in the present invention covalently bind to KRAS G12C using MSRA to detect a covalent adduct of the exemplary compound and KRAS G12C.
GDP-loaded KRAS (1-169) G12C, C51S, C80L, C118S were diluted in the protein assay buffer 25 mM Hepes pH7.5, 200 mM NaCl, 5% glycerol to concentration of 5 μM and 20 μl of protein was transferred into 96-well plate. Initial compound stocks were generated at concentrations 100-fold higher that their desired assay concentrations. See K-Ras(G12C) inhibitors allosterically control GTP affinity and effector interactions; Ostrem J M, Peters U, Sos M L, Wells J A, Shokat K M; Nature. 2013, Nov. 28; 503(7477):548-51.
Exemplary compounds dissolved in DMSO were diluted 100-fold into solution containing 20 μl of 5 μM KRAS protein in the 96-well plate to initiate the reaction. Mosquito (TPP Lab tech) liquid handling robot was used to add compounds to protein solution. Typical final concentration of the compounds was 5 μM or 10 μM. The plates were placed on a shaker for 1 min at RT, sealed and incubated at room temperature for specified time period. 5 μl of reaction mix was added to 10 μl of 0.2% formic acid stop solution and mixed well. Typical end points were 1, 15, 30, and 60 min.
Data were collected using Waters Acquity H-class UPLC system/Xevo G2-XS TOF mass spectrometer. The protein was injected in their liquid phase onto a Bruker Microtrap protein column TR1/15109/03. The following buffers were used to set LC gradient: Buffer A: 0.2% formic acid H2O; B: 0.2% formic acid CAN. The protein was eluted from the column using the following LC Gradient: 0-0.4 min, 10% B to 30% B; 0.4 min-2.4 min, to 90% B, 2.5 min, 10% B, 3 min, 10% B. Initial data analysis was performed using MaxEnt software right after data acquisition.
The standard auto processing function was used to define percentage of unmodified and modified KRAS protein using MexEnt software right after data acquisition. The highest peak was defined as 100% while smaller peak as assigned the number defined by autoprocessing function. The percent of modification corresponding to modified with exemplary compound and unmodified KRAS GDP-loaded KRAS (1-169) G12C, C51S, C80L, C118S were exported to Xcel data analysis software.
The percent of modified protein at the defined concentration of exemplary compound was calculated using the following formula: % mod=Num of modified peak/Sum of modified+unmodified. The resultant value defined as Percent Modification (PM) and an increase in PM reflects that the specific compound is better than other compounds at specified compound concentration at a given time point.

KRAS G12C = KRAS G12C (Homo sapiens, UniProt P01116, G12C); experiment: Cell Activity Assay: accumulation of GDP-bound KRAS G12C in MIAPaCa-2 cells (Raf-1 RBD capture, MSD readout); format: cell-based; parameters: endogenous in cells; host or cells: MIAPaCa-2; conditions: 6 hours, assay limit is 30.00
Experimental: Compounds presented in the present invention lead to the accumulation of the GDP bound Ras upon treatment of human cancer cell line.
The accumulation of the GDP-bound KRAS G12C in cellular environment was measured based on the principle that KRAS G12C only binds to its downstream kinase; Raf-1 (MAP Kinase Kinase Kinase), when in its active-GTP bound state. In this state, Ras binded to a domain of Raf-1 kinase referred to as the Ras Binding Domain (RBD).
MIAPaCa-2 cells were grown in RPMI 1640 medium (Gibco 11875) supplemented with 10% fetal bovine serum and 1% penicillin/streptomycin. Cells were seeded in 96-well tissue culture plates at a density of 30,000 cells/well and allowed to attach for 16-24 hours. Test compounds were prepared as a 10 mM stock in DMSO and serially diluted in 100% DMSO using a 3-fold dilution scheme. An intermediate 5× concentrated plate in complete growth medium was made and 25 μl/well was added to the 100 μl of cells for a final concentration of 0.3% DMSO. Each concentration of exemplary compound was tested in duplicate. The negative control wells were cells with control inhibitor at 10 μM, and the positive control wells were cells without drugs, DMSO only. Plates were incubated for 6 hours at 37° C., 5% CO2. Following treatment, cells were washed 3× with ice-cold PBS and 115 μl/well ice-cold 1× Assay/Lysis. Buffer with protease inhibitors was added (25 mM HEPES, pH 7.5, 150 mM NaCl, 1% NP-40, 10 mM MgCl2, 1 mM EDTA, 2% Glycerol). Following lysis samples were frozen at −80° C.
Raf-1 RBD (LJIC-1988A1) was diluted to 100 ng/well in PBS and 5 μl/well was spot coated onto MSD high bind SECTOR plates (L15XB). Plates were incubated at room temperature for 1 hour on an orbital shaker. Plates were washed with PBS/0.05% Tween-20 and 50 μl/well of thawed lysate samples were added, followed by 50 μl of 1% MSD Blocker A in PBS/0.05 Tween-20 (R93BA). Plates were incubated for 1 hour on an orbital shaker and washed with PBS/0.05% Tween-20. 25 μl/well of Anti-pan-Ras Antibody (Cell Biolabs 244003) diluted 1:3000 was added in 1% MSD Blocker A solution and plates were incubated for 1 hour on an orbital shaker and washed with PBS/0.05% Tween-20. SULFO-TAG goat anti-mouse secondary antibody (MSD R32AC) was diluted 1:500 in MSD Blocker A solution and added at 25 μL/well. Plates were incubated for 1 hour on an orbital shaker and washed with PBS/0.05% Tween-20. 150 μl/well of Read Buffer T (MSD R92TC) diluted 1:3 in H2O was added and plates were read on a Meso Scale Discovery Sector Imager S600.
KRAS signal was normalized to maximum inhibition and DMSO control values, and IC50 values were generated using a 4 parameter fit of the dose response curve. The decrease in IC50 reflects that the exemplary compound lead to a higher level of accumulation of GDP-bound KRAS G12C than another exemplary compounds at specific timepoint of treatment of cancer cell line.

Row | SMILES | MSRA (% modification) 10 μM 0.50 hr [1] [%] | IC50 (KRAS G12C) [µM] | MSRA (% modification) 5.0 μM 0.25 hr [1] [%] | MSRA (% modification) 5.0 μM 0.017 hr [1] [%]
1 | C=CC(=O)N1CCN(c2ncnc3c(Oc4cc(O)cc5ccccc45)nc(C(F)(F)F)cc23)CC1 [Example 01, 1-(4-{8-[(3-hydroxynaphthalen-1-yl)oxy]-6-(trifluoromethyl)pyrido[3,4-d]pyrimidin-4-yl}piperazin-1-yl)prop-2-en-1-one] | 27 | > 30 | – | –
2 | C=CC(=O)N1CCN(c2ncnc3c(Oc4c(C)ccc5[nH]ncc45)nccc23)CC1 [Example 01A, 1-(4-{8-[(5-methyl-1H-indazol-4-yl)oxy]pyrido[3,4-d]pyrimidin-4-yl}piperazin-1-yl)prop-2-en-1-one] | 11 | 11.8 | – | –
3 | C=CC(=O)N1CCN(c2nc(OC)nc3c(Oc4c(C)ccc5[nH]ncc45)nccc23)CC1 [Example 01B, 1-(4-{2-methoxy-8-[(5-methyl-1H-indazol-4-yl)oxy]pyrido[3,4-d]pyrimidin-4-yl}piperazin-1-yl)prop-2-en-1-one] | 12 | 16.9 | – | –
4 | C=CC(=O)N1CCN(c2ncnc3c(Oc4c(C)ccc5[nH]ncc45)cccc23)CC1 [Example 01C, 1-(4-{8-[(5-methyl-1H-indazol-4-yl)oxy]quinazolin-4-yl}piperazin-1-yl)prop-2-en-1-one] | 18 | 5.92 | – | –
5 | C=CC(=O)N1CCN(c2ncnc3c(Cc4c(C)ccc5[nH]ncc45)cccc23)CC1 [Example 01D, 1-(4-{8-[(5-methyl-1H-indazol-4-yl)methyl]quinazolin-4-yl}piperazin-1-yl)prop-2-en-1-one] | 37 | 6.69 | – | –
6 | C=CC(=O)N1CCN(c2nc(N3CC(N(C)C)C3)nc3c(Oc4c(Cl)c(C)cc5[nH]ncc45)nc(C)cc23)CC1 [Example 01E, 1-(4-{8-[(5-Chloro-6-methyl-1H-indazol-4-yl)oxy]-2-[3-(dimethylamino)azetidin-1-yl]-6-methylpyrido[3,4-d]pyrimidin-4-yl}piperazin-1-yl)prop-2-en-1-one] | 29 | 2.41 | – | –
7 | C=CC(=O)N1CCN(c2nc(NCc3nc(C)c[nH]3)nc3c(Oc4c(C)ccc5[nH]ncc45)cccc23)CC1 [Example 01F, 1-[4-(2-{[(4-methyl-1H-imidazol-2-yl)methyl]amino}-8-[(5-methyl-1H-indazol-4-yl)oxy]quinazolin-4-yl)piperazin-1-yl]prop-2-en-1-one] | 35 | 9.34 | – | –
8 | C=CC(=O)N1CCN(c2nc(O[C@H]3CCOC3)nc3c(Oc4c(Cl)c(F)cc5[nH]ncc45)nccc23)CC1 [Example 01J, 1-(4-{8-[(5-chloro-6-fluoro-1H-indazol-4-yl)oxy]-2-[(3S)-tetrahydrofuran-3-yloxy]pyrido[3,4-d]pyrimidin-4-yl}piperazin-1-yl)prop-2-en-1-one] | – | 0.339 | 55 | –
9 | C=CC(=O)N1CCN(c2nc(O[C@@H]3CN(C)C[C@H]3OC)nc3c(Oc4c(Cl)c(F)cc5[nH]ncc45)nc(C)cc23)CC1 [Example 01K, 1-[4-(8-[(5-chloro-6-fluoro-1H-indazol-4-yl)oxy]-2-{[(3R,4R)-4-methoxy-1-methylpyrrolidin-3-yl]oxy}-6-methylpyrido[3,4-d]pyrimidin-4-yl)piperazin-1-yl]prop-2-en-1-one] | – | 0.065 | – | 65
10 | C=CC(=O)N1CCN(c2nc(O[C@@H]3CN(C)C[C@H]3OC)nc3c(Oc4c(Cl)c(F)cc5[nH]ncc45)cccc23)CC1 [Example 01L, 1-[4-(8-[(5-chloro-6-fluoro-1H-indazol-4-yl)oxy]-2-{[(3R,4R)-4-methoxy-1-methylpyrrolidin-3-yl]oxy}quinazolin-4-yl)piperazin-1-yl]prop-2-en-1-one] | – | 0.038 | – | 51
11 | C=CC(=O)N1CCN(c2ncnc3c(Oc4cc(O)cc5ccccc45)nc(C)cc23)CC1 [Example 02, 1-(4-{8-[(3-Hydroxynaphthalen-1-yl)oxy]-6-methylpyrido[3,4-d]pyrimidin-4-yl}piperazin-1-yl)prop-2-en-1-one] | 19 | > 30 | – | –

Now from value to molecule:

Row | MSRA (% modification) 10 μM 0.50 hr [1] [%] | IC50 (KRAS G12C) [µM] | MSRA (% modification) 5.0 μM 0.25 hr [1] [%] | MSRA (% modification) 5.0 μM 0.017 hr [1] [%] | SMILES
12 | 15 | 5.25 | – | – | C=CC(=O)N1CCN(c2ncnc3c(Oc4c(C)ccc5[nH]ncc45)nc(C)cc23)CC1 [Example 02A, 1-(4-{6-methyl-8-[(5-methyl-1H-indazol-4-yl)oxy]pyrido[3,4-d]pyrimidin-4-yl}piperazin-1-yl)prop-2-en-1-one]
13 | 60 | 1.01 | 12 | – | C=CC(=O)N1CCN(c2ncnc3c(Oc4c(Cl)c(F)cc5[nH]ncc45)nccc23)CC1 [Example 02C, 1-(4-{8-[(5-chloro-6-fluoro-1H-indazol-4-yl)oxy]pyrido[3,4-d]pyrimidin-4-yl}piperazin-1-yl)prop-2-en-1-one]
14 | 12 | 4.66 | – | – | C=CC(=O)N1CCN(c2ncnc3c(Cc4c(C)ccc5[nH]ncc45)nccc23)CC1 [Example 02D, 1-(4-{8-[(5-methyl-1H-indazol-4-yl)methyl]pyrido[3,4-d]pyrimidin-4-yl}piperazin-1-yl)prop-2-en-1-one]
15 | 32 | 6.46 | – | – | C=CC(=O)N1CCN(c2nc(N3CC(N(C)C)C3)nc3c(Oc4c(C)ccc5[nH]ncc45)cccc23)CC1 [Example 02E, 1-(4-{2-[3-(dimethylamino)azetidin-1-yl]-8-[(5-methyl-1H-indazol-4-yl)oxy]quinazolin-4-yl}piperazin-1-yl)prop-2-en-1-one]
16 | 14 | > 30 | – | – | C=CC(=O)N1CCN(c2nc(NCc3nncn3C)nc3c(Oc4c(C)ccc5[nH]ncc45)cccc23)CC1 [Example 02F, 1-[4-(8-[(5-methyl-1H-indazol-4-yl)oxy]-2-{[(4-methyl-4H-1,2,4-triazol-3-yl)methyl]amino}quinazolin-4-yl)piperazin-1-yl]prop-2-en-1-one]
